Measurements reported in patent US20260285850A1, “SUBSTITUTED OXAZOLIDINONES AND IMIDAZOLINONES AS HERBICIDES” (FMC CORPORATION, priority 2023, published 2026).

How the values were obtained:
Assay type in all cases: in vivo
[1] = tested on: wheat (Triticum aestivum); assay: Test A preemergence soil spray, visual injury rating 0-100; conditions: 10 days
Summary of the method: (§1)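 Rating: visual, day 10, untreated plants as reference, 0 no effect to 100 full control. Plants were in loam-sand and were treated either preemergence via directed soil spray or postemergence at the one- to two-leaf stage.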

soybean (Glycine max) [2] = assay: as above; conditions: 10 days
Summary of the method: as §1

[3] = tested on: oat, wild (wild oat, Avena fatua); assay: as above; conditions: 10 days
Summary of the method: as §1

[4] = tested on: ryegrass, Italian (italian ryegrass, Lolium multiflorum); assay: as above; conditions: 10 days
Summary of the method: as §1

corn (Zea mays) [5] = assay: as above; conditions: 10 days
Summary of the method: as §1

[6] = tested on: palmer (palmer amaranth, palmer pigweed, Amaranthus palmeri); assay: as above; conditions: 10 days
Summary of the method: as §1

[7] = tested on: blackgrass (Alopecurus myosuroides); assay: as above; conditions: 10 days
Summary of the method: as §1

[8] = tested on: barnyardgrass (Echinochloa crus-galli); assay: as above; conditions: 10 days
Summary of the method: as §1

[9] = tested on: green foxtail (Setaria viridis); assay: as above; conditions: 10 days
Summary of the method: as §1

kochia (Bassia scoparia) [10] = assay: as above; conditions: 10 days
Summary of the method: as §1

[11] = tested on: ragweed (common ragweed, Ambrosia artemisiifolia); assay: as above; conditions: 10 days
Summary of the method: as §1

[12] = tested on: wheat (Triticum aestivum); assay: Test A postemergence application, visual injury rating 0-100
Summary of the method: as §1

soybean (Glycine max) [13] = assay: as above
Summary of the method: as §1

[14] = tested on: oat, wild (wild oat, Avena fatua); assay: as above
Summary of the method: as §1

[15] = tested on: ryegrass, Italian (italian ryegrass, Lolium multiflorum); assay: as above
Summary of the method: as §1

corn (Zea mays) [16] = assay: as above
Summary of the method: as §1

[17] = tested on: galium (catchweed bedstraw, Galium aparine); assay: as above
Summary of the method: as §1

[18] = tested on: palmer (palmer amaranth, palmer pigweed, Amaranthus palmeri); assay: as above
Summary of the method: as §1

[19] = tested on: blackgrass (Alopecurus myosuroides); assay: as above
Summary of the method: as §1

[20] = tested on: barnyardgrass (Echinochloa crus-galli); assay: as above
Summary of the method: as §1

[21] = tested on: green foxtail (Setaria viridis); assay: as above
Summary of the method: as §1

kochia (Bassia scoparia) [22] = assay: as above
Summary of the method: as §1

[23] = tested on: ragweed (common ragweed, Ambrosia artemisiifolia); assay: as above
Summary of the method: as §1

[24] = tested on: horseweed (Erigeron canadensis); assay: as above
Summary of the method: as §1

[25] = tested on: ducksalad (Heteranthera limosa); assay: Test B flooded paddy test, visual plant response rating 0-100; conditions: 250 g ai/ha, Flood, applied to paddy water, evaluated after 13 days
Summary of the method: (§2)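 Greenhouse, 13 d. Seedlings at 2-leaf stage, pots flooded to 3 cm, compound delivered into floodwater, water level held constant. Evaluated visually relative to controls.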

rice (Oryza sativa) = assay: as above; conditions: 250 g ai/ha, Flood, applied to paddy water, evaluated after 13 days
Summary of the method: as §2

[26] = tested on: barnyardgrass (Echinochloa crusgalli); assay: as above; conditions: 250 g ai/ha, Flood, applied to paddy water, evaluated after 13 days
Summary of the method: as §2

[27] = tested on: sedge, umbrella (small-flower umbrella sedge, Cyperus difformis); assay: as above; conditions: 250 g ai/ha, Flood, applied to paddy water, evaluated after 13 days
Summary of the method: as §2

[28] = 62 g ai/ha, 0 = no effect, 100 = complete control
[29] = 62 g ai/ha, postemergence, 10 days, 0 = no effect, 100 = complete control
[30] = Postemergence, 16 g ai/ha, greenhouse 10 days, 0 no effect, 100 complete control

CC(C)OC(=O)C1=CCC(NC(=O)C2(C)CN(c3cc(F)cc(F)c3)C(=O)O2)C1 (stereo not shown) [Compound 100]
Wheat plant response rating ([1]; 16 g ai/ha, 0 to 100 scale): 50
Wheat plant response rating (0-100) [1, 28]: 90
Soybean plant response rating (soybean (Glycine max) [2]; 16 g ai/ha, 0 to 100 scale): 0
Soybean plant response rating (0-100) (soybean (Glycine max) [2]; [28]): 40
Oat, Wild plant response rating ([3]; 16 g ai/ha, 0 to 100 scale): 0
Oat, Wild plant response rating (0-100) [3, 28]: 0
Ryegrass, Italian plant response rating ([4]; 16 g ai/ha, 0 to 100 scale): 60
Ryegrass, Italian plant response rating (0-100) [4, 28]: 80
Corn plant response rating (corn (Zea mays) [5]; 16 g ai/ha, 0 to 100 scale): 30
Corn plant response rating (0-100) (corn (Zea mays) [5]; [28]): 30
Pigweed, Palmer plant response rating ([6]; 16 g ai/ha, 0 to 100 scale): 90
Pigweed, Palmer plant response rating (0-100) [6, 28]: 100
Blackgrass plant response rating ([7]; 16 g ai/ha, 0 to 100 scale): 0
Blackgrass plant response rating (0-100) [7, 28]: 60
Barnyardgrass plant response rating ([8]; 16 g ai/ha, 0 to 100 scale): 30
Barnyardgrass plant response rating (0-100) [8, 28]: 100
Foxtail, Green plant response rating ([9]; 16 g ai/ha, 0 to 100 scale): 80
Foxtail, Green plant response rating (0-100) [9, 28]: 100
Kochia plant response rating (kochia (Bassia scoparia) [10]; 16 g ai/ha, 0 to 100 scale): 0
Kochia plant response rating (0-100) (kochia (Bassia scoparia) [10]; [28]): 100
Ragweed plant response rating ([11]; 16 g ai/ha, 0 to 100 scale): 0
Ragweed plant response rating (0-100) [11, 28]: 0
Wheat plant response rating (0-100) [12, 29]: 80
Wheat plant response rating (0 to 100 scale) [12, 30]: 70
Soybean plant response rating (0-100) (soybean (Glycine max) [13]; [29]): 70
Soybean plant response rating (0 to 100 scale) (soybean (Glycine max) [13]; [30]): 60
Oat, Wild plant response rating (0-100) [14, 29]: 100
Oat, Wild plant response rating (0 to 100 scale) [14, 30]: 70
Ryegrass, Italian plant response rating (0-100) [15, 29]: 90
Ryegrass, Italian plant response rating (0 to 100 scale) [15, 30]: 70
Corn plant response rating (0-100) (corn (Zea mays) [16]; [29]): 100
Corn plant response rating (0 to 100 scale) (corn (Zea mays) [16]; [30]): 100
Galium plant response rating (0-100) [17, 29]: 90
Galium plant response rating (0 to 100 scale) [17, 30]: 70
Pigweed, Palmer plant response rating (0-100) [18, 29]: 80
Pigweed, Palmer plant response rating (0 to 100 scale) [18, 30]: 20
Blackgrass plant response rating (0-100) [19, 29]: 90
Blackgrass plant response rating (0 to 100 scale) [19, 30]: 60
Barnyardgrass plant response rating (0-100) [20, 29]: 100
Barnyardgrass plant response rating (0 to 100 scale) [20, 30]: 50
Foxtail, Green plant response rating (0-100) [21, 29]: 90
Foxtail, Green plant response rating (0 to 100 scale) [21, 30]: 80
Kochia plant response rating (0-100) (kochia (Bassia scoparia) [22]; [29]): 90
Kochia plant response rating (0 to 100 scale) (kochia (Bassia scoparia) [22]; [30]): 80
Ragweed plant response rating (0-100) [23, 29]: 40
Ragweed plant response rating (0 to 100 scale) [23, 30]: 0
Horseweed plant response rating (0-100) [24, 29]: 40
Horseweed plant response rating (0 to 100 scale) [24, 30]: 0
Plant response rating, Ducksalad (0 to 100 scale, 0 is no effect and 100 is complete control) [25]: 75
Plant response rating, Rice (0 to 100 scale, 0 is no effect and 100 is complete control) (rice (Oryza sativa)): 70
Plant response rating, Barnyardgrass (0 to 100 scale, 0 is no effect and 100 is complete control) [26]: 70
Plant response rating, Sedge, Umbrella (0 to 100 scale, 0 is no effect and 100 is complete control) [27]: 95
